Consider three molecules from patent publication US10064876B2, “Bile acid receptor agonism for treating addiction” (Vanderbilt University, priority 2015, dated 2018).

“Also recorded” adds a separate entry of the source.

Data set [1] concerns C57BL/6J mice. Description: cocaine conditioned place preference (CPP) in mice under chronic OCA. Conditions: OCA 10 mg/kg orally six days a week for four weeks vs vehicle, CPP started after 2 weeks, cocaine 20 mg/kg i.p. Type of data set: in vivo, mouse. How it is done: CPP was performed as previously described, with modifications (Graham D L, et al. (2013). Mol Psychiatry. 18(9):961-962). Briefly, mice were weighed and then acclimated to the testing room for at least 20 minutes prior to testing each day. During the first phase (pre-conditioning, day 1), mice were placed on the grid floor side of a two chamber apparatus. For 30 min, the mice had free access to both sides of the apparatus, which each contained their own distinct visual and tactile cues. During the second phase (conditioning, days 2-9), on alternate days mice were restricted to one side or the other of the apparatus for 30 min by use of a dividing door. […] During this time, the mouse's locomotor activity was measured by infrared sensors and used to determine cocaine-induced locomotor sensitization. […] Thus mice were given full access to both compartments and their time spent on each side was measured. % CPP was calculated as the time spent on the cocaine-paired side between post-conditioning minus the time spent on the cocaine-paired side during pre-conditioning divided by the time spent on the saline-paired side during pre-conditioning. […] Locomotor sensitization to cocaine was determined by the ambulatory distance on days when mice received cocaine during the conditioning phase of CPP. […]

The subject of data set [2] is C57BL/6J mice. Description: cocaine-induced locomotion in OCA-treated mice. The class given is in vivo, mouse. Conditions: OCA 10 mg/kg orally, chronic, vs vehicle. How it is done: CPP was performed as previously described, with modifications (Graham D L, et al. (2013). Mol Psychiatry. 18(9):961-962). Briefly, mice were weighed and then acclimated to the testing room for at least 20 minutes prior to testing each day. During the first phase (pre-conditioning, day 1), mice were placed on the grid floor side of a two chamber apparatus. For 30 min, the mice had free access to both sides of the apparatus, which each contained their own distinct visual and tactile cues. During the second phase (conditioning, days 2-9), on alternate days mice were restricted to one side or the other of the apparatus for 30 min by use of a dividing door. Just prior to being placed in the chamber, each mouse was given an injection of either cocaine (20 mg/kg, i.p.) or saline (i.p.). […] Only the first 20 minutes of pre-conditioning and post-conditioning was used in the calculation of % CPP. […] Following 20 minutes of acclimation to the testing room, mice were initially placed in open field chambers for 60 min and ambulatory distance was recorded. […] Finally, mice were removed again and injected with cocaine (20 mg/kg, i.p.) before being placed back in the chamber for an additional 120 minutes. […] Jellies were composed of gelatin (10% w/v), sucralose (18.5% w/v), artificial strawberry flavoring (8% v/v); beta cyclodextrin (2% w/v) in water. […]

A short description of data set [3]: body weight during chronic OCA treatment. Type of data set: in vivo, mouse. Conditions: OCA 10 mg/kg orally vs vehicle, throughout the 4-week study. From the text: Jellies were composed of gelatin (10% w/v), sucralose (18.5% w/v), artificial strawberry flavoring (8% v/v); beta cyclodextrin (2% w/v) in water. […] Jellies containing vehicle contained the same amount of beta cyclodextrin. Mice were given jellies by voluntary oral administration six days per week for four weeks. They were given the jellies between 3 pm and 6 pm by placing each mouse into an open field chamber containing the jelly. To ensure that mice consumed the jellies consistently, all mice were initially trained to eat jellies without drug for 5 days prior to drug/vehicle jelly administration. Mice in this group underwent behavioral testing for cocaine conditioned place preference after 2 weeks of chronic drug administration. During this time, drug administrations were continued until sacrifice.

Data set [4] has as its system AMPA receptor-mediated excitatory post-synaptic currents (EPSCs) in NAc medium spiny neurons. Description: whole-cell electrophysiology, EPSC amplitude in ex vivo brain slices. The class given is cell-based, mouse. Conditions: 10 μM OCA (FIG. 29B legend), perfused 10 min, holding at −70 mV, 50 μM picrotoxin. How it is done: Ex vivo mouse sagittal brain slices were prepared as previously described (Grueter, B. A., et al. Nat Neurosci 13:1519-1525 (2010)). Briefly, mice were acutely anesthetized using isoflurane and sacrificed by rapid decapitation. Brains were submerged in ice-cold sucrose dissecting solution (80 mM NaCl, 2.5 mM KCl, 7 mM MgCl2, 0.5 mM CaCl2, 1.25 mM NaH2PO4, 25 mM NaHCO3, 75 mM sucrose, and 25 mM glucose) and 250 μm thick slices were cut using the Leica 200VT Vibratome. Slices were allowed to recover for 10-15 min at 35° C. in an N-methyl D-glucamine (NMDG) based recovery solution (2.5 mM KCl, 20 mM HEPES, 1.2 mM NaH2PO4, 25 mM glucose, 93 mM NMDG, 30 mM NaHCO3, 5 mM sodium ascorbate, 3 mM sodium pyruvate, 10 mM MgSO4, and 0.5 mM CaCl2) before being transferred to a room temperature ACSF holding chamber for one hour prior to use. ASCF used for holding chamber and recordings contained 120 mM NaCl, 2.5 mM KCL, 1.5 mM MgCl2, 2.5 mM CaCl2, 1 mM NaH2PO4, 25 mM NaHCO3, and 10 mM glucose. […] Evoked responses were elicited by electrical stimulation via the Iso-flex stimulation isolator and recorded using the Axopatch Multiclamp 700B amplifier and Axon Digidata 1550 low-noise data acquisition digitizer. […] Peak EPSC amplitude was measured for the duration of the experiment and normalized to the first 10 min. […]

The conditions of data set [5]: phase III clinical trial, hepatic steatosis; cited from earlier work.
Another data set relates to FXR. Conditions: Sayin 2013; Li 2013; cited from earlier work.
For the next data set, the system named is Lipoprotein lipase (Lpl). Put plainly: hepatic gene expression by RNA-seq. Type of data set: in vivo, mouse. Conditions: liver. As for the experimental part:
The transcriptional sequencing was implemented with modifications of the standard Illumina methods (Bentley, D. R. et al. Nature 456, 53-59 (2008)). Sequencing reactions were performed using the Illumina HiSeq (v3 chemistry). Initial QC quantification of the extracted total RNA was done by using Qubit Fluorometer (Invitrogen). Agilent 2100 Bioanalyzer was used to check the quality of the extracted RNA from both the samples. About 30 ng of total RNA was amplified using the NuGEN Technologies Ovation RNA amplification kit optimized for RNA sequencing. The output is double-stranded complementary DNA (cDNA) that was sheared using the Covaris instrument to an average insert size of 300 bp. The sheared DNA entered the standard Illumina TruSeq library preparation protocol at the standard end-repair step. […] Following LM-PCR, the samples were purified and assessed for quality using the Agilent Bioanalyzer. Final quantitation was performed using the KAPA Biosystems Kapa Library Quant kit. […]
Multiple stages of quality control (QC) on sequencing data was carried out. […] Raw data were aligned with TopHat 2 against mouse MM10 genome, and read count data were obtained using HTSeq, DESeq (Anders, S. & Huber, W. Genome Biol. 11, R106 (2010)), edgeR (Robinson, M. D., et al. Bioinformatics 26, 139-140 (2010)) and baySeq (Hardcastle, T. J. & Kelly, K. A. BMC Bioinformatics 11, 422 (2010)). […]

Turning to `CC[C@H]1[C@@H](O)[C@@H]2[C@H](CC[C@]3(C)[C@@H]([C@H](C)CCC(=O)O)CC[C@@H]23)[C@@]2(C)CC[C@@H](O)C[C@@H]12` [OCA, (4R)-4-[(3R,5S,6R,7R,8S,9S,10S,13R,14S,17R)-6-Ethyl-3,7-dihydroxy-10,13-dimethyl-2,3,4,5,6,7,8,9,11,12,14,15,16,17-tetradecahydro-1H-cyclopenta[a]phenanthren-17-yl]pentanoic acid], the “cocaine CPP (preference for the cocaine-paired chamber, % CPP)” value in the data set with C57BL/6J mice [1] is “decreased; also recorded: reduced preference”. For the same molecule, the “cocaine CPP (preference for the cocaine-paired chamber, % CPP)” value with C57BL/6J mice [1] (listed as 6-ECDCA) was “significantly reduced”. In the data set with C57BL/6J mice [2], the cocaine-induced locomotion result is on record as “impaired”. In addition, in data set [3], the body weight entry was “No differences”. Moreover, the “EPSC amplitude in NAc medium spiny neurons” value in data set [4] is “robust depression; also recorded: reduced”. Besides, in data set [5], the clinical efficacy entry is given as “clinical efficacy” and the safety profile entry was “excellent safety profile”.

Turning to `C[C@H](CCC(=O)NCCS(=O)(=O)O)[C@H]1CC[C@H]2[C@@H]3[C@@H](O)[C@@H](O)[C@@H]4C[C@H](O)CC[C@]4(C)[C@H]3CC[C@]12C` [TβMCA, 5β-cholanic acid-3α,6β,7β-triol-N-[2-sulphoethyl]-amide], in the data set with FXR, the FXR antagonist activity result is “potent FXR antagonist”.

For `COC(=O)/C=C/c1cccc(N(Cc2ccc(-c3ccc(N(C)C)cc3)cc2)C(=O)C2CCCCC2)c1` [fexaramine], the “Lpl hepatic expression, increase relative to DIO controls” value with Lipoprotein lipase (Lpl) was 2.4 fold.
